Calls of active or inactive are those of the source. The calls are words filed in the database; no cut-off is given here.
How the values were obtained:
[1] = Inhibition of recombinant Aedes aegypti RecLab N-terminal Trx-fused/His6-tagged 3-hydroxykynurenine transaminase H360M mutant expressed in Escherichia coli Rosetta 2 (DE3) assessed as conversion of 3-hydroxy kynurenine to xanthurenic-acid using 3-D,L hydroxy kynurenine as substrate preincubated with PLP cofactor and enzyme and 30 mins later incubated with 3-D,L-HK and measured after 5 mins by microplate reader assay
[2] = Competitive inhibition of Anopheles gambiae 3-hydroxykynurenine transaminase
[3] = Binding affinity to recombinant Aedes aegypti RecLab N-terminal Trx-fused/His6-tagged 3-hydroxykynurenine transaminase H360M mutant expressed in Escherichia coli Rosetta 2 (DE3) assessed as inhibition constant for enzyme-substrate complex
[4] = Binding affinity to recombinant Aedes aegypti RecLab N-terminal Trx-fused/His6-tagged 3-hydroxykynurenine transaminase H360M mutant expressed in Escherichia coli Rosetta 2 (DE3) assessed as inhibition constant for free form of enzyme
Aedes aegypti = test: Non-competitive mixed inhibition of recombinant Aedes aegypti RecLab N-terminal Trx-fused /His6-tagged 3-hydroxykynurenine transaminase H360M mutant expressed in Escherichia coli Rosetta 2 (DE3) using varying level of 3-D,L hydroxy kynurenine as substrate by Lineweaver-Burk plot analysis

SMILES | IC50 [1] [µM] | other results
O=C(O)CCCc1nc(-c2ccc(C(F)(F)F)cc2)no1 | 70 | –
Nc1ccccc1C(=O)CCC(=O)O | – | Ki [2]: 300 µM
O=C(O)CCCc1nc(-c2ccc(Cl)c(Cl)c2)no1 | 64 | –
O=C(O)CCCc1nc(-c2ccc3c(c2)OCO3)no1 | 87 | –
Cc1cccc(-c2noc(CCCC(=O)O)n2)c1 | 54 | –
Cc1ccc(-c2noc(CCCC(=O)O)n2)cc1 | 88 | –
O=C(O)CCCc1nc(-c2cccc3ccccc23)no1 | 63 | –
O=C(O)CCCc1nc(-c2ccc(I)cc2)no1 | 42 | –
COc1ccc(-c2noc(CCCC(=O)O)n2)cc1 | 101 | –
O=C(O)CCCc1nc(-c2ccc(Br)cc2)no1 | 110 | –
O=C(O)CCCc1nc(-c2ccc(Cl)cc2)no1 | 294 | –
O=C(O)CCCc1nc(-c2ccccc2)no1 | 72 | Ki [3]: 1220 µM; Ki [4]: 360 µM; inhibition (Aedes aegypti): Active
